# Tests used:
# Details in all cases: in vivo
# Plasma [1] = assay: Drug level in human plasma assessed as compound formation treated with [14C]brivanib alaninate at 800 mg, po administered as single dose via gavage measured after 4 hrs by HPLC analysis; type: ADME, organism-based
# Plasma [2] = assay: Drug level in human plasma assessed as compound formation treated with [14C]brivanib alaninate at 800 mg, po administered as single dose via gavage measured after 8 hrs by HPLC analysis; type: ADME, organism-based
# Plasma [3] = assay: Drug level in human plasma assessed as compound formation treated with [14C]brivanib alaninate at 800 mg, po administered as single dose via gavage measured after 12 hrs by HPLC analysis; type: ADME, organism-based
# [4] = Drug excretion in Sprague-Dawley rat feces treated with [14C]brivanib alaninate at 100 mg/kg, po administered as single dose via gavage by HPLC analysis; type: ADME, organism-based
# [5] = Drug excretion in bile duct-cannulated rat bile treated with [14C]brivanib alaninate at 100 mg/kg, po administered as single dose via gavage by HPLC analysis; type: ADME, organism-based
# [6] = Drug excretion in cynomolgus monkey urine treated with [14C]brivanib alaninate at 10 mg/kg, po administered as single dose via gavage by HPLC analysis; type: ADME, organism-based, Macaca fascicularis
# [7] = Drug excretion in cynomolgus monkey feces treated with [14C]brivanib alaninate at 10 mg/kg, po administered as single dose via gavage by HPLC analysis; type: ADME, organism-based, Macaca fascicularis
# [8] = Drug excretion in bile duct-cannulated cynomolgus monkey bile treated with [14C]brivanib alaninate at 10 mg/kg, po administered as single dose via gavage by HPLC analysis; type: ADME, organism-based, Macaca fascicularis
# [9] = Drug excretion in human urine treated with [14C]brivanib alaninate at 800 mg, po administered as single dose […] by HPLC analysis; type: ADME, organism-based
# [10] = Drug excretion in human feces treated with [14C]brivanib alaninate at 800 mg, po administered as single dose […] by HPLC analysis; type: ADME, organism-based
# Plasma [11] = assay: Drug level in Sprague-Dawley rat plasma assessed as compound formation treated with [14C]brivanib alaninate at 100 mg/kg, po administered as single dose via gavage measured after 1 hr by HPLC analysis; type: ADME, organism-based
# Plasma [12] = assay: Drug level in Sprague-Dawley rat plasma assessed as compound formation treated with [14C]brivanib alaninate at 100 mg/kg, po administered as single dose via gavage measured after 2 hrs by HPLC analysis; type: ADME, organism-based
# Plasma [13] = assay: Drug level in Sprague-Dawley rat plasma assessed as compound formation treated with [14C]brivanib alaninate at 100 mg/kg, po administered as single dose via gavage measured after 6 hrs by HPLC analysis; type: ADME, organism-based
# Plasma [14] = assay: Drug level in cynomolgus monkey plasma assessed as compound formation treated with [14C]brivanib alaninate at 10 mg/kg, po administered as single dose via gavage measured after 1 hr by HPLC analysis; type: ADME, organism-based, Macaca fascicularis
# Plasma [15] = assay: Drug level in cynomolgus monkey plasma assessed as compound formation treated with [14C]brivanib alaninate at 10 mg/kg, po administered as single dose via gavage measured after 2 hrs by HPLC analysis; type: ADME, organism-based, Macaca fascicularis
# Plasma [16] = assay: Drug level in cynomolgus monkey plasma assessed as compound formation treated with [14C]brivanib alaninate at 10 mg/kg, po administered as single dose via gavage measured after 4 hrs by HPLC analysis; type: ADME, organism-based, Macaca fascicularis
# Plasma [17] = assay: Drug level in cynomolgus monkey plasma assessed as compound formation treated with [14C]brivanib alaninate at 10 mg/kg, po administered as single dose via gavage measured after 6 hrs by HPLC analysis; type: ADME, organism-based, Macaca fascicularis
# Plasma [18] = assay: Drug level in cynomolgus monkey plasma assessed as compound formation treated with [14C]brivanib alaninate at 10 mg/kg, po administered as single dose via gavage measured after 12 hrs by HPLC analysis; type: ADME, organism-based, Macaca fascicularis
# Plasma [19] = assay: Drug level in human plasma assessed as compound formation treated with [14C]brivanib alaninate at 800 mg, po administered as single dose via gavage measured after 1 hr by HPLC analysis; type: ADME, organism-based
# Plasma [20] = assay: Drug level in human plasma assessed as compound formation treated with [14C]brivanib alaninate at 800 mg, po administered as single dose via gavage measured after 2 hrs by HPLC analysis; type: ADME, organism-based
# Homo sapiens [21] = assay: Drug uptake in human plasma treated with [14C]brivanib alaninate assessed as AUC (0 to 12 hrs) of total radio activity at 800 mg, po administered as single oral dose by HPLC analysis; type: ADME, organism-based
# Rattus norvegicus [22] = assay: AUC (0 to 6 hrs) Sprague-Dawley rat plasma treated with [14C]brivanib alaninate at 100 mg/kg, po administered as single oral dose by HPLC analysis; type: ADME, organism-based
# Cynomolgus monkey [23] = assay: AUC (0 to 12 hrs) cynomolgus monkey plasma treated with [14C]brivanib alaninate at 10 mg/kg, po administered as single oral dose by HPLC analysis; type: ADME, organism-based, Macaca fascicularis
# Homo sapiens [24] = assay: AUC (0 to 12 hrs) human plasma treated with [14C]brivanib alaninate at 800 mg, po administered as single oral dose by HPLC analysis; type: ADME, organism-based
# [25] = Drug excretion in Sprague-Dawley rat urine treated with [14C]brivanib alaninate at 100 mg/kg, po administered as single dose via gavage by HPLC analysis; type: ADME, organism-based
# Cynomolgus monkey [26] = assay: Drug uptake in cynomolgus monkey plasma treated with [14C]brivanib alaninate assessed as AUC (0 to 12 hrs) of total radio activity at 10 mg/kg, po administered as single oral dose by HPLC analysis; type: ADME, organism-based, Macaca fascicularis
# Rattus norvegicus [27] = assay: Drug uptake in Sprague-Dawley rat plasma treated with [14C]brivanib alaninate assessed as AUC (0 to 6 hrs) of total radio activity at 100 mg/kg, po administered as single oral dose by HPLC analysis; type: ADME, organism-based
# [28] = Drug level in Sprague-Dawley rat urine treated with [14C]brivanib alaninate at 100 mg/kg, po administered as single dose via gavage by mass spectrometry; type: ADME, organism-based
Structure (SMILES),Compound recovery (Plasma [1]),Compound recovery (Plasma [2]),Compound recovery (Plasma [3]),Compound recovery [4],Compound recovery [5],Compound recovery [6],Compound recovery [7],Compound recovery [8],Compound recovery [9],Compound recovery [10],Compound recovery (Plasma [11]) [%],Compound recovery (Plasma [12]) [%],Compound recovery (Plasma [13]) [%],Compound recovery (Plasma [14]),Compound recovery (Plasma [15]),Compound recovery (Plasma [16]),Compound recovery (Plasma [17]),Compound recovery (Plasma [18]),Compound recovery (Plasma [19]),Compound recovery (Plasma [20]),other results
Cc1cc2c(F)c(Oc3ncnn4cc(O[C@@H]5O[C@H](C(=O)O)[C@@H](O)[C@H](O)[C@H]5O)c(C)c34)ccc2[nH]1,metabolite_not_detected,2%,1.2%,metabolite_not_detected,27.4%,0.8%,metabolite_not_detected,metabolite_not_detected,0.8%,metabolite_not_detected,5.1,6.5,9.1,metabolite_not_detected,metabolite_not_detected,metabolite_not_detected,metabolite_not_detected,metabolite_not_detected,0.8%,3%,–
Cc1cc2c(F)c(Oc3ncnn4cc(OS(=O)(=O)O)c(C)c34)ccc2[nH]1,4.4%,7.6%,8.9%,4.6%,25.4%,0.7%,metabolite_not_detected,1.9%,metabolite_not_detected,metabolite_not_detected,30.7,26.8,20.9,2.9%,5.9%,9.4%,9.1%,5.7%,8.8%,6.7%,AUC metabolite/AUC radiolabel (Homo sapiens [21]): 5.8%; AUC (Rattus norvegicus [22]): 37494.4 ugequiv/l.hr; AUC (Cynomolgus monkey [23]): 5622.3 ugequiv/l.hr; AUC (Homo sapiens [24]): 3835.4 ugequiv/l.hr; Compound recovery [25]: 2.7%; AUC metabolite/AUC radiolabel (Cynomolgus monkey [26]): 8.1%; AUC metabolite/AUC radiolabel (Rattus norvegicus [27]): 26.8%
Cc1c(O)cn2ncnc(Oc3ccc4[nH]c(C(=O)O)cc4c3F)c12,–,–,–,metabolite_not_detected,1.8%,metabolite_not_detected,metabolite_not_detected,metabolite_not_detected,metabolite_not_detected,metabolite_not_detected,–,–,–,–,–,–,–,–,–,–,Compound recovery [28]: metabolite_detected
Cc1c(OS(=O)(=O)O)cn2ncnc(Oc3ccc4[nH]c(C(=O)O)cc4c3F)c12,20%,23%,24.3%,metabolite_not_detected,4%,0.3%,metabolite_not_detected,1.4%,3.3%,metabolite_not_detected,18.2,22.1,20,3.3%,3%,4.6%,9.1%,12.5%,metabolite_not_detected,11.3%,AUC metabolite/AUC radiolabel (Homo sapiens [21]): 14.7%; AUC (Rattus norvegicus [22]): 29545.4 ugequiv/l.hr; AUC (Cynomolgus monkey [23]): 4597.3 ugequiv/l.hr; AUC (Homo sapiens [24]): 9668.9 ugequiv/l.hr; Compound recovery [25]: 5.1%; AUC metabolite/AUC radiolabel (Cynomolgus monkey [26]): 6.6%; AUC metabolite/AUC radiolabel (Rattus norvegicus [27]): 21.1%
Cc1c(O)cn2ncnc(Oc3ccc4[nH]c(CO)cc4c3F)c12,–,–,–,1.5%,metabolite_not_detected,metabolite_not_detected,metabolite_not_detected,metabolite_not_detected,metabolite_not_detected,metabolite_not_detected,–,–,–,–,–,–,–,–,–,–,Compound recovery [25]: 0.4%
Cc1c(OS(=O)(=O)O)cn2ncnc(Oc3ccc4[nH]c(CO)cc4c3F)c12,–,–,–,metabolite_not_detected,metabolite_not_detected,metabolite_not_detected,metabolite_not_detected,0.4%,metabolite_not_detected,metabolite_not_detected,–,–,–,–,–,–,–,–,–,–,Compound recovery [25]: metabolite_not_detected
Cc1cc2c(F)c(Oc3ncnn4cc(OCC(=O)O)c(C)c34)ccc2[nH]1,metabolite_not_detected,metabolite_not_detected,metabolite_not_detected,1.8%,1.4%,0.2%,0.5%,metabolite_not_detected,metabolite_not_detected,metabolite_not_detected,4.7,6.4,6,0.9%,1.7%,2.7%,2.6%,3.3%,metabolite_not_detected,metabolite_not_detected,Compound recovery [28]: metabolite_detected
Cc1cc2c(F)c(Oc3ncnn4cc(O)c(C)c34)ccc2[nH]1,metabolite_not_detected,metabolite_not_detected,metabolite_not_detected,42.8%,10.8%,metabolite_not_detected,1.8%,0.4%,metabolite_not_detected,metabolite_not_detected,2.4,1.9,1.7,metabolite_not_detected,metabolite_not_detected,metabolite_not_detected,metabolite_not_detected,metabolite_not_detected,metabolite_not_detected,metabolite_not_detected,–
